# Legend:
# [1] = tested on: HeLa human cervical carcinoma cells; experiment: Intracellular fluorescence by flow cytometry; format: cell-based; details: 2 μM 1 h + 6 h, SB-3CT (10 μM) and CA-074 Me (25 μM) 2 h pretreatment
# Description: The cells were pretreated with SB-3CT (10 μM) and/or CA-074 Me (25 μM) or simply the neat medium for 2 h, followed by incubation with 1 (2 μM) for a further 1 h. After being rinsed with PBS, the cells were incubated in the medium for a further 6 h. As a negative control, the cells were simply incubated with 14 (2 μM) for 1 h, followed by post-incubation in the medium for 6 h. The fluorescence images of the cells under all these conditions were captured using a confocal laser scanning microscope. […] For the cells with pretreatment with both inhibitors, fluorescence due to 1 could hardly be seen. Similarly, for the cells being incubated with 14, the intracellular fluorescence was negligible. […] Again, for PMB 1, the fluorescence intensity was the highest for the cells without being pretreated with the two inhibitors. […] For HeLa cells being treated with 1, the fluorescence intensity of the native cells (i.e., the dual activated condition) was just 3.2-fold that of the cells under the dual inhibited condition. […]
# Confocal Fluorescence Microscopic Studies […]
# The cells were then rinsed with PBS twice before being examined with a Leica TCS SP8 high - speed confocal microscope equipped with a 638 nm laser. The fluorescence was monitored at 650−750 nm. The images were digitized and analyzed using a Leica Application Suite X […]
# [2] = Stability in PBS and cathepsin B working buffer without enzymes (absorption/fluorescence spectra); format: physicochemical; details: 1 μM, PBS pH 7.4 or buffer pH 5.0 (25 mM NaOAc, 1 mM EDTA, 500 μM GSH), 0.1% Tween 80, 37 °C, 25 h
# [3] = tested on: A549 tumor-bearing nude mice; experiment: In vivo fluorescence activation in tumor; parameters: species or system Balb/c nude mice; details: 6 h post-injection; intratumoral, 20 nmol in 20 μL water with 7.5% DMSO and 0.5% Tween 80; excitation 680 nm, emission ≥700 nm; n = 4
# Description: The in vivo activation of 1 in terms of fluorescence emission was further investigated using A549 tumor-bearing nude mice as the animal model and the non-cleavable analogue 14 as the negative control. […] The fluorescence intensity per unit area of the tumor was also determined at different time points for both conjugates (Figure 7b). […] At 6 h post-injection, the intensity of 1 was 4.3-fold higher than that of 14, showing that the former could be activated through enzymatic cleavage of the two peptide segments by the intrinsic MMP-2 and cathepsin B in the tumor, while the latter remained largely quenched due to its non-cleavable nature. […]
# taken by a microplate reader (Tecan Spark 10M) at ambient temperature. The average […]
# of the other wells. The cell viability was then determined by the equation: […]
# where Ai is the absorbance of the ith datum (i = 1, 2, …, n), Acontrol is the average absorbance of the control wells in which the compound was absent, and n (= 4) is the number of data points.
# Female Balb/c nude mice (20–25 g) were obtained from the Laboratory Animal Services Centre at The Chinese University of Hong Kong. […] In vivo fluorescence imaging was performed before and after […]
# A549 tumor-bearing nude mice were prepared as described above. The length and width of the tumor were measured using a micrometer digital caliper (SCITOP Systems). […]
smiles,measurement,setting,value
CCN(CC)c1ccc2nc3ccc(/N=N/c4ccc(N(C)CCCNC(=O)OC[C@@H]5[C@@H]6CCc7nnn(CC(=O)NCCCC[C@@H]8NC(=O)CNC(=O)[C@H](CCCCN)NC(=O)[C@H](CCCNC(=N)N)NC(=O)[C@H](C(C)C)NC(=O)CNC(=O)[C@H](CC(C)C)NC(=O)[C@@H]9CCCN9C(=O)[C@H](CCCCN)NC(=O)[C@@H](N)CSCc9cc(COc%10ccc(C%11=C%12C(C)=C(I)C(/C=C/c%13ccc(OCCOCCOCCOC)cc%13)=[N+]%12[B-](F)(F)n%12c(/C=C/c%13ccc(OCCOCCOCCOC)cc%13)c(I)c(C)c%12%11)cc%10)cc(c9)CSC[C@@H](C(N)=O)NC(=O)[C@H](CCCCN)NC(=O)[C@H](CCCCN)NC(=O)CNC(=O)[C@H](CC(C)C)NC(=O)[C@H](Cc9ccccc9)NC(=O)CNC(=O)[C@H](CCCCN)NC(=O)CNC8=O)c7CC[C@@H]65)cc4)cc3[n+](-c3ccccc3)c2c1 [compound 1],"intracellular fluorescence intensity, native cells relative to dual inhibited condition",[1],3.2 fold
same,stability in the absence of enzymes,[2],stable
same,tumoral fluorescence intensity relative to that of 14,[3],4.3 fold
